{"source": "paper PMC6478823", "about": "“A suite of phenotypic assays to ensure pipeline diversity when prioritizing drug-like Cryptosporidium growth inhibitors” (Nature Communications, 2019)", "key": {"[1]": {"system": "C. parvum", "experiment": "Egress, motility, reinvasion assay (PV ratio)", "conditions": "compound at EC90; for Egress and Reinvasion Assay: Mean PV ratios (19.5h:6h), Average: average of replicates; for Egress and Reinvasion Assay: Mean PV ratios (19.5h:6h), Replicate 1a: single replicate 1; for Egress and Reinvasion Assay: Mean PV ratios (19.5h:6h), Replicate 2a: single replicate 2; for Egress and Reinvasion Assay: Mean PV ratios (19.5h:6h), Replicate 3a: single replicate 3; for Egress and Reinvasion Assay: Mean PV ratios (19.5h:6h), Replicate 4a: single replicate 4", "procedure": "For quantification of parasitophorous vacuoles over time, HCT-8 cells were grown to greater than 90% confluence in 384-well plates and infected with 11,000 oocysts after triggering excystation."}, "[2]": {"system": "C. parvum", "assay_type": "cell-based, Cryptosporidium parvum", "conditions": "compound at EC90; for Invasion Assay: Mean % Inhibition (parasites), Average: average of replicates; for Invasion Assay: Mean % Inhibition (parasites), Replicate 1a: single biological replicate 1; for Invasion Assay: Mean % Inhibition (parasites), Replicate 2a: single biological replicate 2"}, "[3]": {"system": "C. parvum", "experiment": "Time-lapse microscopy of live C. parvum egress", "conditions": "2 × EC90 (1.3 µM total)", "procedure": "Cells were then imaged live with 5 min intervals using Nomarski optics and a ×60 oil objective (1.4 NA). […] After 3 h, cells were gently washed with warm complete media to remove oocyst shells before adding either compound or DMSO. Tiled 2 × 2 images were taken live at 20 min intervals using a ×40 dry objective (0.7 NA)."}, "[4]": {"system": "C. parvum", "experiment": "48 h Cryptosporidium growth inhibition assay", "assay_type": "cell-based, Cryptosporidium parvum", "conditions": "compound added 3 h post-infection, read at 48 h", "method_in_brief": "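HCT-8 monolayers were infected with excysted C. parvum Iowa oocysts (5500/well), with compounds added 3 h post-infection and incubation for a further 45 h at 37 °C. Vacuoles were stained with fluorescein–Vicia villosa lectin and nuclei with Hoechst, then imaged and counted automatically to derive EC50 and EC90.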"}, "[5]": {"system": "cryptosporidiosis", "set-up": "method as in PMID 17253532", "conditions": "cited from earlier work"}, "[6]": {"system": "Cryptosporidium", "set-up": "method as in Downey, et al. 2008. AAC.", "conditions": "ref Downey, et al. 2008. AAC.; cited from earlier work"}, "[7]": {"conditions": "Cryptosporidium parvum, HCT-8, read-out: Regular 3 to 48 h assay in vitro EC90, C. parvum in HCT-8 cells"}}, "note": "Where two headings read alike, the source gives them in different places.", "data": [{"smiles": "Cc1cccc(-n2ncc3c(O)nc(-n4nc(C)cc4NC(=O)c4cc5ccccc5o4)nc32)c1", "note": "[C-1]", "values": [{"measurement": "Egress and Reinvasion Assay: Mean PV ratios (19.5h:6h), Average", "setting": "[1]", "value": 0.80}, {"measurement": "Egress and Reinvasion Assay: Mean PV ratios (19.5h:6h), Replicate 1a", "setting": "[1]", "value": 0.80}, {"measurement": "Egress and Reinvasion Assay: Mean PV ratios (19.5h:6h), Replicate 2a", "setting": "[1]", "value": 1.08}, {"measurement": "Egress and Reinvasion Assay: Mean PV ratios (19.5h:6h), Replicate 3a", "setting": "[1]", "value": 0.56}, {"measurement": "Egress and Reinvasion Assay: Mean PV ratios (19.5h:6h), Replicate 4a", "setting": "[1]", "value": 0.76}, {"measurement": "Invasion Assay: Mean % Inhibition (parasites), Average", "setting": "[2]", "value": -10.80, "unit": "%"}, {"measurement": "Invasion Assay: Mean % Inhibition (parasites), Replicate 1a", "setting": "[2]", "value": -29, "unit": "%"}, {"measurement": "Invasion Assay: Mean % Inhibition (parasites), Replicate 2a", "setting": "[2]", "value": -22, "unit": "%"}, {"measurement": "Invasion Assay: Mean % Inhibition (parasites), Replicate 3a", "setting": "[2]; single biological replicate 3", "value": 9, "unit": "%"}, {"measurement": "Invasion Assay: Mean % Inhibition (parasites), Replicate 4a", "setting": "[2]; single biological replicate 4", "value": -0.416, "unit": "%"}, {"measurement": "parasite egress during live microscopy", "setting": "[3]", "value": "inhibited parasite egress"}, {"measurement": "EC90", "setting": "[4]; read-out: Regular 3 to 48 h assay in vitro EC90, C. parvum in HCT-8 cells", "value": 0.65, "unit": "µM"}]}, {"smiles": "CC(=O)Oc1ccccc1C(=O)Nc1ncc([N+](=O)[O-])s1", "note": "[Nitazoxanide]", "values": [{"measurement": "Egress and Reinvasion Assay: Mean PV ratios (19.5h:6h), Average", "setting": "[1]", "value": 1.40}, {"measurement": "Egress and Reinvasion Assay: Mean PV ratios (19.5h:6h), Replicate 1a", "setting": "[1]", "value": 1.33}, {"measurement": "Egress and Reinvasion Assay: Mean PV ratios (19.5h:6h), Replicate 2a", "setting": "[1]", "value": 1.77}, {"measurement": "Egress and Reinvasion Assay: Mean PV ratios (19.5h:6h), Replicate 3a", "setting": "[1]", "value": 1.37}, {"measurement": "Egress and Reinvasion Assay: Mean PV ratios (19.5h:6h), Replicate 4a", "setting": "[1]", "value": 1.12}, {"measurement": "Invasion Assay: Mean % Inhibition (parasites), Average", "setting": "[2]", "value": 13.83, "unit": "%"}, {"measurement": "effect on host cell invasion / parasitophorous vacuole formation", "setting": "[2]; result in words", "value": "no significant effect on parasitophorous vacuole formation"}, {"measurement": "Invasion Assay: Mean % Inhibition (parasites), Replicate 1a", "setting": "[2]", "value": 11, "unit": "%"}, {"measurement": "Invasion Assay: Mean % Inhibition (parasites), Replicate 2a", "setting": "[2]", "value": 17, "unit": "%"}, {"measurement": "EC90", "setting": "[4]; [7]", "value": 3.52, "unit": "µM"}, {"measurement": "efficacy in AIDS patients", "setting": "[5]", "value": "equivalent to a placebo"}]}, {"smiles": "Cc1cc(/C=C/c2ccc3cc(N(C)C)ccc3[n+]2C)c(C)n1-c1ccccc1", "note": "[Pyrvinium pamoate]", "values": [{"measurement": "Egress and Reinvasion Assay: Mean PV ratios (19.5h:6h), Average", "setting": "[1]", "value": 0.61}, {"measurement": "Egress and Reinvasion Assay: Mean PV ratios (19.5h:6h), Replicate 1a", "setting": "[1]", "value": 0.97}, {"measurement": "Egress and Reinvasion Assay: Mean PV ratios (19.5h:6h), Replicate 2a", "setting": "[1]", "value": 0.85}, {"measurement": "Egress and Reinvasion Assay: Mean PV ratios (19.5h:6h), Replicate 3a", "setting": "[1]", "value": 0.33}, {"measurement": "Egress and Reinvasion Assay: Mean PV ratios (19.5h:6h), Replicate 4a", "setting": "[1]", "value": 0.30}, {"measurement": "anticryptosporidial activity in neonatal mouse model", "setting": "[6]", "value": "previously demonstrated anticryptosporidial activity"}, {"measurement": "Invasion Assay: Mean % Inhibition (parasites), Average", "setting": "[2]", "value": 25.69, "unit": "%"}, {"measurement": "Invasion Assay: Mean % Inhibition (parasites), Replicate 1a", "setting": "[2]", "value": 30, "unit": "%"}, {"measurement": "Invasion Assay: Mean % Inhibition (parasites), Replicate 2a", "setting": "[2]", "value": 22, "unit": "%"}, {"measurement": "EC90", "setting": "[4]; [7]", "value": 3.21, "unit": "µM"}]}]}
